For this assay, the system named is dox-dependent SWS virus. Briefly: Sensitivity of HIV-rtTA (SWS) replication to antiretroviral drugs in SupT1 cells. Particulars: infected SupT1 cells maintained in the presence of dox. The format is cell-based, HIV-1. The protocol:
FIG. 4. Replication of HIV-rtTA can be turned on and turned off. These experiments were performed with the SWS virus, but similar results have been obtained with the other HIV-rtTA variants. The SWS virus was used (2200 ng CA-p24) to infect 6×10^6 SupT1 cells at day 0. […] In panel B, the effect of delayed addition of dox (1000 ng/ml) was analyzed at day 3 after infection. In panel C, the infected cells were grown in 1000 ng/ml dox for 3 days, at which point the cells were washed and incubated in the absence or presence of dox. In panel D, infected cells were maintained in the presence of dox and the effect of the Protease-inhibitor Saquinavir (200 nM) and the RT-inhibitor AZT ([…]) was tested.
As an additional safety test, the sensitivity of the HIV-rtTA virus to antiretroviral drugs that are in current clinical use was analyzed. Because the basic set of viral genes in HIV-rtTA was not altered, including the genes encoding Protease (Pro) and Reverse Transcriptase (RT), these viruses are expected to remain fully sensitive to well-known drugs that target these essential enzymes.

The structures appear in SMILES notation.

Take `Cc1cn([C@H]2C[C@H](N=[N+]=[N-])[C@@H](CO)O2)c(=O)[nH]c1=O` [AZT, 3′-azido, 3′-deoxythymidine]: the “inhibition of SWS virus replication” value (AZT 1 μg) is “inhibited efficiently”.

With `CC(C)(C)NC(=O)[C@@H]1C[C@@H]2CCCC[C@@H]2CN1C[C@@H](O)[C@H](Cc1ccccc1)NC(=O)[C@H](CC(N)=O)NC(=O)c1ccc2ccccc2n1` [Saquinavir], for the setting “Saquinavir 200 nM”, the “inhibition of SWS virus replication” value was “inhibited efficiently”.

For the origin of these results see patent publication US20030099613A1, “Viral replicons and viruses dependent on inducing agents” (priority 1999, published 2003).
